{"source": "patent US10363288B2", "about": "“Insulin mimotopes and methods of using the same” (THE REGENTS OF THE UNIVERSITY OF COLORADO, a body corporate, priority 2015, dated 2019)", "key": {"[1]": {"test_system": "B:9-23 specific CD4 T cells", "conditions": "presented by IAg7; cited from earlier work"}, "[2]": {"test_system": "CD4+CFSElo cells", "assay": "T cell receptor V alpha gene sequencing of CD4+CFSElo cells after proliferation to peptide", "assay_type": "cell-based, human", "conditions": "three HLA matched T1D subjects with two non-β57Asp DQ alleles; CD4+CFSElo cells vs baseline", "description": "Three individuals had TCR α-chain sequencing performed on sorted CD4 T cells before peptide proliferation and then on CD4+CFSElo cells after one week of proliferation. Total RNA was directly extracted from sorted cells using the RNeasy Mini kit (Qiagen) for cells before proliferation and the PicoPure RNA isolation kit (Life Technologies) for those after proliferation. […] To amplify TCR-α and TCR-β chains, a two-step PCR was performed. PCR reactions were generated for α- and β-chains separately using the Universal Primer A Mix supplied from the SMARTer RACE cDNA Amplification Kit along with a primer designed on the constant region of α-[…] NO:22)) and β-chains […] NO:23)), respectively. The first PCR products were further amplified with nested primers ligated with the 454 adaptor sequences containing a multiple identifier sequence: forward primer for both α- and β-chains ([NT] NO:24)), reverse primer for α-chains […] NO:25)-multiple identifier sequence-[…] NO:26), and reverse primer for β-chains […] […] All sequences obtained from 454 sequencing were analyzed by the […]-QUEST algorithm (45) to identify Vgene, Jgene, and junction sequences, followed by additional analysis by in-house software to determine frequencies of Vgene usages by individual TCR sequences. Vgene frequencies determined by mean values from the 12 PCR reactions were analyzed for individual samples. […]"}}, "data": [{"sequence": "SHLVEALYLVCGEEG [B: 9-23 B22E, B:9-23 mimotope; B22 arginine to glutamic acid]", "values": [{"measurement": "stimulates B:9-23 specific CD4 T cells better than the wild type peptide", "setting": "[1]", "value": "about 100 fold"}, {"measurement": "TCR V gene usage of alpha chains before and after proliferation", "setting": "[2]", "value": "skewing with several V alpha genes and one V delta gene"}]}]}
